Assay results as given in patent US6060597A, “Cyclic oligosaccharide, and an agent containing the same for preventing or treating retroviral diseases” (Kikkoman Corporation, priority 1997, dated 2000).

Key:
[1] = target: binding of gp120 to CD4 receptor (HIV-1 M:B_HXB2R, UniProt P04578); experiment: inhibition of the binding of gp120 to CD4 receptor (drug discovery kit, duPont); conditions: concentration range of 0 to 100 mg/ml; FIG. 5
Description: Measurement of anti-HIV activity of sulfated CI-8
Sulfated CI-8 obtained above in Example 1 was examined for the activity of inhibiting the binding of gp120 to CD4 receptor in the concentration range of […] using a drug discovery kit (duPont).

fresh rat blood [2] = experiment: anticoagulation activity in fresh rat blood, microtiter plate, visual evaluation of serum separation; type: biochemical; conditions: citrated fresh rat blood, CaCl2-initiated, 15 minutes at room temperature; for anticoagulation activity: judged against 20 U/mg standard
Description: Anticoagulation activity of sulfated cyclic oligosaccharide
Sulfated CI-8 was examined for its anticoagulation activity. 1% aqueous sulfated CI-8 solution obtained by dissolving 10 mg of sulfated CI-8 sodium in 1 ml de-ionized water was diluted at various concentrations with 0.85% sterilized NaCl solution (physiological saline) to prepare sulfated CI-8 solutions at various concentrations. Solutions of dextran 5000 sodium sulfate (Wako Pure Chemical Industries, Ltd.) at various concentrations were also prepared in the same manner. Standard solutions at various concentrations were prepared using dextran sodium sulfate having 20 U/mg anticoagulation activity (a gift from Meito Sangyo K. K.).
40 μl each of the aqueous solutions were put to each well on a 96-well microtiter plate. Then, 50 μof fresh rat blood containing 0.38% trisodium citrate was put to each well and mixed. Further, 10 μl of 2% aqueous CaCl2 solution and mixed whereby blood-coagulation reaction was initiated. The plate was left at room temperature for 15 minutes and centrifuged at 2000 rpm for 10 minutes, and the separation of the serum in each well was visually evaluated. As a result, the anticoagulation activity of sulfated CI-8 was judged to be about 1/2 relative to the known dextran sodium sulfate, so its activity was judged to be about […]. The activity of dextran 5000 sodium sulfate was judged to be about 40 U/mg.

fresh rat blood [3] = conditions: stated activity of the standard substance (gift from Meito Sangyo K. K.); cited from earlier work

| Substance | activity of inhibiting the binding of gp120 to CD4 receptor [1] | anticoagulation activity (fresh rat blood [2]) | anticoagulation activity relative to the known dextran sodium sulfate (fresh rat blood [2]; relative to 20 U/mg standard) | anticoagulation activity of the standard (fresh rat blood [3]) [U/mg] |
| --- | --- | --- | --- | --- |
| cyclic isomaltoctaose-heptadecyl-0-sulfate sodium salt [sulfated CI-8] | inhibited the binding of pg120 to CD4 in proportion to its concentration | about 10 U/ml | about 1/2 | – |
| dextran 5000 sodium sulfate [reference compound] | – | about 40 U/mg | – | – |
| dextran sodium sulfate | – | – | – | 20 |
